Test results published in the supplement of paper PMC10307832.

Columns and labels:
Assay in all cases: relative viability (nuclei count vs DMSO), 5 days (fraction); higher = more cells survive
Bleomycin + Dasatinib = compound: CC1=C(N=C(N=C1N)[C@H](CC(=O)N)NC[C@@H](C(=O)N)N)C(=O)N[C@@H]([C@H](C2=CN=CN2)OC3C(C(C(C(O3)CO)O)O)OC4C(C(C(C(O4)CO)O)OC(=O)N)O)C(=O)N[C@H](C)[C@H]([C@H](C)C(=O)N[C@@H]([C@@H](C)O)C(=O)NCCC5=NC(=CS5)C6=NC(=CS6)C(=O)NCCC[S+](C)C)O [Bleomycin] + Cc1nc(Nc2ncc(C(=O)Nc3c(C)cccc3Cl)s2)cc(N2CCN(CCO)CC2)n1 [Dasatinib] (partner 0.075 µM); conditions: main component drawn
Summary of the method: (§1)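 Dosing by pin tool came one day after lung cancer cell lines were seeded in 1536-well plates, using either one drug or a fixed anchor-drug dose plus five library-drug doses (not always all listed) in √10 steps. After 5 days, nuclei were counted on 4× images. Relative viability is treated-well nuclei count divided by vehicle-well nuclei count, and values are medians of duplicate plates.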

Etoposide + Trametinib = compound: COc1cc([C@@H]2c3cc4c(cc3[C@@H](O[C@@H]3O[C@@H]5CO[C@@H](C)O[C@H]5[C@H](O)[C@H]3O)[C@H]3COC(=O)[C@H]23)OCO4)cc(OC)c1O [Etoposide] + CC(=O)Nc1cccc(-n2c(=O)n(C3CC3)c(=O)c3c(Nc4ccc(I)cc4F)n(C)c(=O)c(C)c32)c1 [Trametinib] (partner 0.02 µM)
Summary of the method: as §1

Etoposide + Pictilisib = compound: COc1cc([C@@H]2c3cc4c(cc3[C@@H](O[C@@H]3O[C@@H]5CO[C@@H](C)O[C@H]5[C@H](O)[C@H]3O)[C@H]3COC(=O)[C@H]23)OCO4)cc(OC)c1O [Etoposide] + CS(=O)(=O)N1CCN(Cc2cc3nc(-c4cccc5[nH]ncc45)nc(N4CCOCC4)c3s2)CC1 [Pictilisib] (partner 1 µM)
Summary of the method: as §1

Etoposide + Foretinib = compound: COc1cc([C@@H]2c3cc4c(cc3[C@@H](O[C@@H]3O[C@@H]5CO[C@@H](C)O[C@H]5[C@H](O)[C@H]3O)[C@H]3COC(=O)[C@H]23)OCO4)cc(OC)c1O [Etoposide] + COc1cc2c(Oc3ccc(NC(=O)C4(C(=O)Nc5ccc(F)cc5)CC4)cc3F)ccnc2cc1OCCCN1CCOCC1 [Foretinib] (partner 0.25 µM)
Summary of the method: as §1

Cell Line | relative viability (Bleomycin + Dasatinib; first compound 0.01 µM) | relative viability (Bleomycin + Dasatinib; first compound 0.03162 µM) | relative viability (Bleomycin + Dasatinib; first compound 0.1 µM) | relative viability (Bleomycin + Dasatinib; first compound 0.3162 µM) | relative viability (Bleomycin + Dasatinib; first compound 1 µM) | relative viability (Etoposide + Trametinib; first compound 0.01 µM) | relative viability (Etoposide + Trametinib; first compound 0.03162 µM) | relative viability (Etoposide + Trametinib; first compound 0.1 µM) | relative viability (Etoposide + Trametinib; first compound 0.3162 µM) | relative viability (Etoposide + Trametinib; first compound 1 µM) | relative viability (Etoposide + Pictilisib; first compound 0.01 µM) | relative viability (Etoposide + Pictilisib; first compound 0.03162 µM) | relative viability (Etoposide + Pictilisib; first compound 0.1 µM) | relative viability (Etoposide + Pictilisib; first compound 0.3162 µM) | relative viability (Etoposide + Pictilisib; first compound 1 µM) | relative viability (Etoposide + Foretinib; first compound 0.01 µM) | relative viability (Etoposide + Foretinib; first compound 0.03162 µM) | relative viability (Etoposide + Foretinib; first compound 0.1 µM) | relative viability (Etoposide + Foretinib; first compound 0.3162 µM) | relative viability (Etoposide + Foretinib; first compound 1 µM)
NCI-H1944 | 0.173 | 0.177 | 0.159 | 0.115 | 0.106 | 0.435 | 0.46 | 0.297 | 0.255 | 0.175 | 0.362 | 0.39 | 0.27 | 0.294 | 0.222 | 0.697 | 0.95 | 0.578 | 0.471 | 0.347
EPLC-272H | 0.35 | 0.36 | 0.272 | 0.149 | 0.0954 | 0.33 | 0.284 | 0.254 | 0.267 | 0.267 | 0.345 | 0.371 | 0.281 | 0.278 | 0.233 | 0.626 | 0.722 | 0.552 | 0.61 | 0.255
NCI-H1915 | 0.247 | 0.258 | 0.181 | 0.0914 | 0.0984 | 0.275 | 0.343 | 0.253 | 0.262 | 0.282 | 0.934 | 1.14 | 0.634 | 0.782 | 0.481 | 1.06 | 1.18 | 1.16 | 0.986 | 0.877
NCI-H647 | 0.101 | 0.0923 | 0.0574 | 0.039 | 0.0343 | 0.309 | 0.546 | 0.351 | 0.405 | 0.134 | 0.418 | 0.394 | 0.257 | 0.208 | 0.0798 | 1.02 | 1.25 | 1.21 | 0.654 | 0.271
NCI-H441 | 0.424 | 0.709 | 0.515 | 0.296 | 0.311 | 0.481 | 0.455 | 0.394 | 0.26 | 0.141 | 0.38 | 0.425 | 0.267 | 0.149 | 0.147 | 0.923 | 0.838 | 0.673 | 0.363 | 0.286
NCI-H23 | 0.535 | 0.552 | 0.321 | 0.148 | 0.167 | 0.299 | 0.342 | 0.309 | 0.265 | 0.24 | 0.433 | 0.487 | 0.275 | 0.334 | 0.185 | 0.924 | 0.941 | 0.678 | 0.4 | 0.242
NCI-H650 | 0.389 | 0.438 | 0.432 | 0.289 | 0.212 | 0.884 | 0.951 | 0.681 | 0.527 | 0.195 | 0.865 | 0.843 | 0.415 | 0.362 | 0.221 | 0.961 | 0.913 | 0.682 | 0.606 | 0.288
SK-MES-1 | 0.329 | 0.316 | 0.232 | 0.0893 | 0.0963 | 0.5 | 0.518 | 0.594 | 0.46 | 0.277 | 0.361 | 0.336 | 0.301 | 0.242 | 0.167 | 0.856 | 1.13 | 0.719 | 0.704 | 0.433
NCI-H2170 | 0.504 | 0.599 | 0.638 | 0.285 | 0.389 | 0.843 | 1.03 |  | 0.877 | 0.723 | 0.315 | 0.306 |  | 0.336 | 0.255 | 0.988 | 1.02 | 0.917 | 0.906 | 0.765
NCI-H2085 | 0.262 | 0.221 | 0.231 | 0.212 | 0.209 | 0.484 | 0.643 | 0.423 | 0.266 | 0.271 | 0.513 | 0.491 | 0.324 | 0.433 | 0.287 | 0.781 | 0.897 | 0.88 | 0.667 | 0.33
NCI-H838 | 0.267 | 0.265 | 0.243 | 0.153 | 0.175 | 0.463 | 0.502 | 0.378 | 0.406 | 0.253 | 0.461 | 0.544 | 0.284 | 0.329 | 0.186 | 0.981 | 1.03 | 1.01 | 0.841 | 0.35
NCI-H460 | 0.362 | 0.318 | 0.244 | 0.0443 | 0.037 | 0.173 | 0.14 | 0.0869 | 0.0497 | 0.021 | 0.393 | 0.434 | 0.151 | 0.076 | 0.0793 | 0.871 | 0.907 | 0.809 | 0.142 | 0.0668
LOU-NH91 | 0.562 | 0.391 | 0.448 | 0.306 | 0.251 | 0.731 | 0.817 | 0.659 | 0.758 | 0.552 | 0.55 | 0.566 | 0.474 | 0.473 | 0.399 | 0.919 | 0.949 | 0.745 | 0.795 | 0.406
NCI-H322M | 0.241 | 0.26 | 0.262 | 0.243 | 0.263 | 0.531 | 0.564 | 0.469 | 0.457 | 0.47 | 0.504 | 0.566 | 0.397 | 0.493 | 0.384 | 0.813 | 1 | 0.831 | 0.864 | 0.483
NCI-H520 | 0.222 | 0.217 | 0.234 | 0.198 | 0.154 | 0.597 | 0.645 | 0.414 | 0.617 | 0.49 | 0.306 | 0.307 | 0.27 | 0.277 | 0.223 | 0.825 | 0.93 | 0.784 | 0.67 | 0.554
